# pEC50: −log10 of the molar value. Read-outs that look alike come from different tables or passages of the source.
# Key:
# HSV-2 = HSV-2 inhibition (dose response) plaque assay on Vero cells; assay type: cell-based; conditions: for pEC50: Vero cells, virus pre-incubated with compound 1 h, read-out: HSV-2 EC50 (95% CI)
# [1] = Vero cell cytotoxicity (MTS assay); assay type: cell-based; conditions: African green monkey, Vero cells, read-out: CC50 (95% CI), Vero cells
# SARS-CoV-2 (Alpha) = assay: SARS-CoV-2 (alpha strain) inhibition plaque assay on Vero E6 cells; assay type: cell-based; conditions: Severe acute respiratory syndrome coronavirus 2, Vero C1008, read-out: SARS-CoV-2 (Alpha) EC50 (95% CI)
# SARS-CoV-2 (Omicron) = assay: SARS-CoV-2 Omicron dose-response assay on Vero E6 cells; assay type: cell-based; conditions: Severe acute respiratory syndrome coronavirus 2, Vero C1008, read-out: SARS-CoV-2 (Omicron) EC50 (95% CI)
# in vitro [2] = conditions: African green monkey
# HIV-1 (YU-2) = HIV-1 (YU-2) inhibition assay on TZM-bl cells (luciferase); assay type: cell-based; conditions: Human immunodeficiency virus 1, read-out: HIV-1 EC50 (95% CI)
# [3] = tested on: Influenza A/Netherlands/2009 (H1N1); assay: H1N1 inhibition assay on MDCK cells (ICC); assay type: cell-based; conditions: Influenza A virus, read-out: H1N1 EC50 (95% CI)
# in vitro [4] = conditions: dog
# [5] = TZM-bl cell cytotoxicity (WST-1); conditions: human
# GFP-EBV B95-8 (EBV) = assay: microbe, parasite or virus in culture; assay type: cell-based, Epstein–Barr virus (EBV); conditions: human gammaherpesvirus 4, read-out: EBV EC50 (95% CI)
# GFP-KSHV (KSHV) = assay: microbe, parasite or virus in culture; assay type: cell-based, Kaposi’s sarcoma-associated herpesvirus (KSHV); conditions: Human gammaherpesvirus 8, HEK-293T, read-out: KSHV EC50 (95% CI)
# [6] = Raji cell cytotoxicity (Zombie NIR flow cytometry); conditions: human
# [7] = HEK293T cell cytotoxicity (Zombie NIR flow cytometry); conditions: human
# Vero cells = assay: Vero cell cytotoxicity (MTS assay); assay type: cell-based; conditions: 24 h, read-out: CC50 (95% CI), Vero cells
# Vero E6 cells = conditions: read-out: CC50 (95% CI), Vero E6 cells, SARS-CoV-2 (Alpha) line
# TZM-bl cells = assay: TZM-bl cell cytotoxicity (WST-1); conditions: read-out: CC50 (95% CI), TZM-bl cells; HIV-1 line
# SARS-CoV-2 Alpha = assay type: in vivo, Syrian hamster
# SARS-CoV-2 = SARS-CoV-2 Syrian hamster model, intranasal instillation from 12 h; assay type: in vivo; conditions: B3C9S solution by intranasal instillation, 1.5, 4.5, 6 mg/kg/day from 12 h
# Experimental: Control Control *** Control
# 80 Placebo 80 Placebo 80 Placebo
# Days post infection Days post infection Days post infection
# Figure S10. Body weight of Syrian hamsters treated with 1.5mg/kg/day B3C9S (a), 4.5mg/kg/day B3C9S (b), 6mg/kg/day B3C9S (c) by intranasal instillation. 25 female Syrian hamsters were randomly assigned into five groups (control, placebo and three doses of B3C9S), each containing 5 hamsters. At day 0, each hamster was weighed and inoculated intranasally with 100 μl PBS (control) or 100 μl […] SARS-CoV-2 (placebo and B3C9S). Starting from 12 h after the inoculation, the hamsters in the placebo group and the […]
# μg/μl) every day, respectively. The body weight of each hamster was measured every 12 h.
# The weight measurements of each hamster were normalized by the initial weight and plotted against time post infection. The error bars represent the means ± standard deviations (n = 5). The asterisks represent the p value (*, <0.05; **, <0.01; ***, <0.001) calculated by two-tailed unpaired t test.
# (also on this page, place not known: Body weight (%) Body weight (%) Body weight (%))
Compound,"pEC50 (HSV-2; Human alphaherpesvirus 2, Vero)",CC50 at 24 h [1],pEC50 (SARS-CoV-2 (Alpha)),CC50 (in vitro [2]),pEC50 (HIV-1 (YU-2)),other results
O=S(=O)(O)OCCCCCCCCCSCC(COS(=O)(=O)O)(CSCCCCCCCCCOS(=O)(=O)O)CSCCCCCCCCCOS(=O)(=O)O [P3C9S],4.61,522 µM,4.99,413 µM,,pEC50 (SARS-CoV-2 (Omicron)): < 2.97
O=S(=O)(O)OCCCCCCCCCCn1cc(COc2cc(OCc3cn(CCCCCCCCCCOS(=O)(=O)O)nn3)cc(OCc3cn(CCCCCCCCCCOS(=O)(=O)O)nn3)c2)nn1 [BTA3C10S],4.77,> 371 µM,< 4.03,> 929 µM,5.28,pEC50 [3]: 4.64; CC50 (in vitro [4]): > 930 µM; CC50 at 6 h [5]: > 93 µM
O=S(=O)(O)OCCCCCCSCc1cc(CSCCCCCCOS(=O)(=O)O)cc(CSCCCCCCOS(=O)(=O)O)c1 [B3C6S],4.11,> 530 µM,3.71,> 530 µM,5.26,CC50 at 6 h ([5]; TZM-bl cells): > 133 µM
O=S(=O)(O)OCCCCCCCCCSCC(CSCCCCCCCCCOS(=O)(=O)O)(CSCCCCCCCCCOS(=O)(=O)O)CSCCCCCCCCCOS(=O)(=O)O [P4C9S],5.19,185 µM,6.32,4 µM,5.71,pEC50 (HSV-2): 5.19; pEC50 (GFP-EBV B95-8 (EBV)): 4.47; pEC50 (GFP-KSHV (KSHV)): 4.68; CC50 at 6 h [5]: 18.4 µM; CC50 at 2 days [6]: > 276 µM; CC50 at 2 days [7]: 122 µM
O=S(=O)(O)OCCCCCCCCCSCC(COS(=O)(=O)O)(COS(=O)(=O)O)CSCCCCCCCCCOS(=O)(=O)O [P2C9S],3.49,,< 2.89,> 1300 µM,,
O=S(=O)(O)OCCCCCCCCCSCc1cccc(CSCCCCCCCCCOS(=O)(=O)O)c1CSCCCCCCCCCOS(=O)(=O)O [OB3C9S],4.74,135 µM,5.85,18.4 µM,,
CCc1c(CSCCCCCCOS(=O)(=O)O)c(CC)c(CSCCCCCCOS(=O)(=O)O)c(CC)c1CSCCCCCCOS(=O)(=O)O [BET3C6S],4.55,> 477 µM,< 3.92,451 µM,5.09,CC50 at 6 h [5]: > 119 µM
O=c1n(CCSCCCCCCCCCOS(=O)(=O)O)c(=O)n(CCSCCCCCCCCCOS(=O)(=O)O)c(=O)n1CCSCCCCCCCCCOS(=O)(=O)O [A3C9S],4.70,221 µM,4.64,39.5 µM,,
O=S(=O)(O)OCCCCCCCCCSCc1c(CSCCCCCCCCCOS(=O)(=O)O)c(CSCCCCCCCCCOS(=O)(=O)O)c(CSCCCCCCCCCOS(=O)(=O)O)c(CSCCCCCCCCCOS(=O)(=O)O)c1CSCCCCCCCCCOS(=O)(=O)O [B6C9S],,,,,,CC50 (Vero cells): 42.7 µM; CC50 (Vero E6 cells): 3.9 µM; CC50 (TZM-bl cells): 10.5 µM
CCc1c(CSCCCCCCCCCOS(=O)(=O)O)c(CC)c(CSCCCCCCCCCOS(=O)(=O)O)c(CC)c1CSCCCCCCCCCOS(=O)(=O)O [BET3C9S],4.88,81.6 µM,5.96,17 µM,5.21,pEC50 (SARS-CoV-2 (Omicron)): < 3.98; CC50 at 6 h [5]: 29.7 µM
O=S(=O)(O)OCCCCCCCCCCO[C@H]1[C@H](OS(=O)(=O)O)[C@H](OCCCCCCCCCCOS(=O)(=O)O)[C@H](OS(=O)(=O)O)[C@@H](OCCCCCCCCCCOS(=O)(=O)O)[C@@H]1OS(=O)(=O)O [I3C10S],3.79,> 359 µM,3.34,> 356 µM,,
"CC(C)(C)[C@H](NC(=O)C(F)(F)F)C(=O)N1C[C@H]2[C@@H]([C@H]1C(=O)N[C@H](C#N)C[C@@H]1CCNC1=O)C2(C)C [nirmatrelvir, reference compound]",,,,,,"viral RNA levels in oral swab vs untreated (SARS-CoV-2 Alpha; […], nirmatrelvir 250 mg/kg orally, P = 0.0021): significantly lower viral RNA levels; viral RNA copies in lung vs untreated (SARS-CoV-2 Alpha; […], nirmatrelvir 250 mg/kg orally, P = 0.0031): significantly decreased viral RNA copies; infectious viral titer (TCID50) in the lungs vs untreated (SARS-CoV-2 Alpha; […], nirmatrelvir 250 mg/kg orally, P = 0.0066): significantly decreased the viral titer; infectious viral titer (TCID50) in the lungs vs untreated (SARS-CoV-2 Alpha; […], nirmatrelvir 250 mg/kg orally, P = 0.012): significantly decreased the viral titer; infectious viral titer (TCID50) in the lungs vs untreated (SARS-CoV-2 Alpha; […], nirmatrelvir 250 mg/kg orally, P = 0.079): no significant difference; histopathological evaluation of lung tissues (SARS-CoV-2 Alpha; nirmatrelvir 250 mg/kg orally): improved pulmonary conditions; severe lung damage (histopathology categories E and F) (SARS-CoV-2 Alpha; nirmatrelvir 250 mg/kg orally, P = 0.03): reducing severe lung damage"
O=S(=O)(O)OCCOCCOCCOCCSCc1cc(CSCCOCCOCCOCCOS(=O)(=O)O)cc(CSCCOCCOCCOCCOS(=O)(=O)O)c1 [B3PEG4S],< 3.40,,< 3.40,,,HSV-2 inhibition at 400 μM (HSV-2; 400 μM): No inhibition
O=S(=O)(O)OCCCCCCCCCCCSCc1cc(CSCCCCCCCCCCCOS(=O)(=O)O)cc(CSCCCCCCCCCCCOS(=O)(=O)O)c1 [B3C11S],4.58,384 µM,6.08,11.2 µM,5.19,CC50 at 6 h ([5]; TZM-bl cells): > 100 µM
O=S(=O)(O)OCCCCCCCCCSCc1cc(CSCCCCCCCCCOS(=O)(=O)O)cc(CSCCCCCCCCCOS(=O)(=O)O)c1 [B3C9S],5.10,331 µM,5.96,14.7 µM,5.20,"pEC50 (HSV-2): 5.10; pEC50 (SARS-CoV-2 (Omicron)): 5.86; pEC50 (GFP-EBV B95-8 (EBV)): 4.33; pEC50 (GFP-KSHV (KSHV)): 4.32; pEC50 [3]: 5.29; efficacy with aerosol treatment compared with B6C11S (SARS-CoV-2 Alpha; hamster, in vivo): less effective; viral titer (viral RNA) in the lungs (SARS-CoV-2 Alpha; hamster, in vivo): significantly decreased the viral titer; viral titer (viral RNA) in the oral swab (SARS-CoV-2 Alpha; hamster, in vivo): significantly reduced; viral titer in oral swab and lung tissues vs untreated (SARS-CoV-2 Alpha; hamster, in vivo): No statistical difference; body weight loss of infected hamsters (SARS-CoV-2): reduced the body weight loss; CC50 (in vitro [4]): 16.6 µM; CC50 at 6 h ([5]; TZM-bl cells): > 113 µM; CC50 at 2 days ([6]; Raji cells): > 341 µM; CC50 at 2 days ([7]; HEK293T cells): 162 µM"

# Reference: publication PMC11117723, “Benzene with Alkyl Chains Is a Universal Scaffold for Multivalent Virucidal Antivirals” (ACS Central Science, 2024)
